In publication PMC8949893, “Chemical Synthesis, Pharmacokinetic Properties and Biological Effects of JM-00266, a Putative Non-Brain Penetrant Cannabinoid Receptor 1 Inverse Agonist” (International Journal of Molecular Sciences, 2022):

Columns and labels:
mice = assay: Body (rectal) temperature measurement; type: in vivo
Protocol: Mice rectal temperature was assessed using a VT4810 controller (Vertex Technology Corp., New Taipei City, Taiwan) adapted with a mouse rectal probe. In the first experiment, the impact of anandamide (10 mg·kg^−1) on body temperature was recorded during 30 min on animals injected either 20 min earlier with vehicle or JM-00266 (20 mg·kg^−1).

[1] = Tissue distribution 4 h after gavage; type: in vivo; conditions: mice, 4 h after gavage in oil, 10 mg·kg−1
Protocol: At 1, 2, 4 and 8 h post-administration, animals were killed by cervical dislocation and blood was collected from the vena cava into tubes containing heparin and centrifuged immediately at 6500× g for 10 min at 4 °C. For determination of tissue distribution, brain, liver and adipose tissue were collected 4 h post-gavage. Plasma and tissue samples were directly extracted for further analysis by Liquid chromatography coupled to tandem mass spectrometry (LC-MS/MS).
(§1) Tissues were homogenized with a mini-bead beater (BioSpec Products, Bartlesville, OK) in 10 volumes of acetonitrile containing 15 ng of internal standard, JM-00252. Blood samples were centrifuged at 6500× g during 10 min 4 °C and 5 µL of plasma were diluted in 10 volumes of acetonitrile containing 15 ng of internal standard. Then, each homogenate of tissue or plasma was centrifuged for 10 min at 6500× g and the supernatant was recovered and carefully transferred to new glass tubes. Finally, the extract was injected into a 1200 LC system coupled to a 6460-QqQ MS/MS system equipped with a JetStream ESI source (Agilent technologies, Les Ulis, France). Separation was achieved on a Poroshell 120 EC-C8 2.1 mm × 100 mm, 2.7 µm column (Agilent technologies) at a flow rate of 0.4 mL.min^−1, 55 °C, with a linear gradient of (solvent A) water containing 1 mM ammonium formate and 0.2% formic acid and (solvent B) methanol containing 1 mM ammonium formate and 0.2% formic acid and as follows: 50% B for 1 min, up to 100% B in 4 min, and then maintained at 100% for 2 min. The acquisition was performed in positive Single Reaction Monitoring (SRM) mode (source temperature: 300 °C, nebulizer gas flow rate was 10 L·min^−1, 15 psi, sheath gas flow 7 L·min^−1, temperature 225 °C, capillary 4000 V, nozzle 1500 V). […] Results are expressed as ng·g^−1 for tissues and ng·mL^−1 for plasma.

murine CB1R = biological target: T1, murine CB1R (Mus musculus, UniProt P47746); assay: GloSensor cAMP functional assay in CB1R-transfected HEK293T/17 cells; type: cell-based
T1 construct: host or cells: HEK293T/17
T1 sequence (P47746 whole entry): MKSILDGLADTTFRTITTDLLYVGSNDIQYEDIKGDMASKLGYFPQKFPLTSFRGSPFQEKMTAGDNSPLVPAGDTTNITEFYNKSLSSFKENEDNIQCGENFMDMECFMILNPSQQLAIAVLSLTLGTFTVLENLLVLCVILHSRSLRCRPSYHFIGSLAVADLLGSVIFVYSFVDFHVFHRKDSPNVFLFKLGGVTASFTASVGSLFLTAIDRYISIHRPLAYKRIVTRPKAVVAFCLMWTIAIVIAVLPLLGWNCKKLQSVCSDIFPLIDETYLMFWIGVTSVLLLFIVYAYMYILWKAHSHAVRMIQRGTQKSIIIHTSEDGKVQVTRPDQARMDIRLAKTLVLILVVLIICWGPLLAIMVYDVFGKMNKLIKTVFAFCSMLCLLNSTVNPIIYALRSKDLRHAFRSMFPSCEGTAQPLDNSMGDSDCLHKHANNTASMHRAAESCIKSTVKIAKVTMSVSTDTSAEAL
Protocol: GloSensor™ cAMP assay designed by Promega (Charbonnières-les-Bains, France) was used to monitor activation of CB1R. HEK293T/17 cells obtained from the American Type Cell Culture Collection (LGC Promochem, Molsheim, France) were seeded at 30,000 cells per well on poly-D-lysine coated 96-well plates (BD Biosciences, Le Pont de Claix, France). They were grown in Dulbecco’s Modified Eagle Medium (DMEM, Waltham, MA, USA) containing 2 mM glutamax and 10% fetal bovine serum. Twenty-four hours later, cells were transiently co-transfected with 50 ng per well of pcDNA3-mouse CB1R (plasmid #13391 supplied by Addgene, Cambridge, MA, USA) which was a gift from Mary E. Abood (California Pacific Medical Center Research Institute, San Francisco, California) and pGlo™-22F cAMP plasmid-luciferase (100 ng per well) allowing these cells to produce light proportionally to intracellular CB1R-dependent cAMP level. Transfection was performed using the Fugene®HD transfection reagent (Promega) for 24 h according to the manufacturer’s instructions. Mock transfections were performed with the empty vector pcDNA3. Twenty-four hours after transfection, cells were equilibrated for 2 h with a CO2-independent medium (Gibco®, Life Technologies, Courtaboeuf, France) supplemented with the GloSensor™ cAMP reagent before adding tested compounds. When a steady-state basal signal was obtained, cells were incubated for 10 min with 1 µM forskolin (Sigma) at room temperature to enhance the intracellular basal cAMP level. Then increasing concentrations of JM-00266 (0.1 µM to 1 mM) were added in the reaction medium in the presence or absence of anandamide (0.1 µM to 1 µM) and luminescence was measured for 20 min with a Victor 3V plate reader (Perkin Elmer, Courtaboeuf, France). […] When GloSensor™ cAMP assays were carried out in the presence of 0.1 µg·mL^−1 pertussis toxin (Sigma), this compound was added in the incubation medium 24 h before incubation with forskolin. All assays were performed in duplicate and each experiment was repeated three times. Results were expressed as the percentage of forskolin-stimulated luciferase activity. The EC50 values were generated using the Sigma Plot software.

[2] = system: visceral adipose tissue explants; assay: In vitro lipolysis: glycerol release by adipose tissue explants from treated mice; conditions: explants from mice injected with JM-00266 10 mg·kg−1 4 h before sacrifice, 1 h culture
Protocol: In vitro experiments. Overnight-fasted mice were injected i.p. with JM-00266 (mg·kg^−1) or vehicle. Four hours later, mice were anesthetized with pentobarbital (50 mg·kg^−1) and epididymal adipose tissue was collected, rinsed in a warm medium (DMEM-HAM/F12) supplemented with 1% BSA, and dissected into ~10 mg pieces. Then, 5–6 explants were incubated in a 5% CO2 atmosphere at 37 °C under slight agitation in 1 mL of the same medium. Free glycerol in the culture medium was determined after 1 h of incubation using a colorimetric assay (glycerol FS, DiaSys).

Brain/plasma ratio (B/P) = type: in vivo; conditions: mice
Protocol: as §1
Brain/plasma ratios (B/P) were determined as previously described. […] Blood and brain were collected and directly extracted for further analysis by LC-MS/MS.

CSc1ccc(C2C(N3C(=O)c4ccccc4C3=O)C(=O)N2c2ccc(SC)cc2)cc1 (stereo not drawn) [JM-00266, 1,4-di-(4-méthylthiophenyl)-3-phthaloylazetidin-2-one]
Effect on anandamide-induced decrease in rectal temperature (mice; JM-00266 20 mg·kg−1 20 min before anandamide 10 mg·kg−1, 30 min recording): not able to counteract the decrease in rectal temperature | Effect on hypothermic response to ACEA (mice; pre-treatment 20 min before ACEA 1 mg·kg−1, Rimonabant 10 mg·kg−1, JM-00266 20 mg·kg−1, t = 30 min): had no effect | Concentrations in plasma and tissues compared with Rimonabant [1]: lower concentrations in plasma and tissues than Rimonabant | Tissue distribution (plasma, brain, liver, visceral adipose tissue) [1]: preferentially accumulated in the liver and the adipose tissue whereas brain concentration remained very low | Effect on cAMP formation, compound alone (murine CB1R; HEK293T/17 cells transfected with murine CB1R, 0.1 µM to 1 mM): dose-dependent increase in cAMP formation | EC50 (murine CB1R; HEK293T/17 cells transfected with murine CB1R, forskolin 1 µM, GloSensor luminescence, read-out: EC50, increase in cAMP formation (inverse agonism)): 249 µM | cAMP response with increasing concentrations of anandamide (murine CB1R; anandamide 0.1 µM to 1 µM): lost | cAMP response in the presence of pertussis toxin (murine CB1R; pertussis toxin 0.1 µg·mL−1 added 24 h before): lost | Glycerol release by visceral adipose tissue explants vs control [2]: higher than in the control | Brain/plasma ratio (B/P) (Brain/plasma ratio (B/P); 10 mg·kg−1, i.p. or oral, DMSO/Tween 80 aqueous solution, at maximal absorption time point): significantly lower | Effect of the administration route on distribution in brain and plasma (Brain/plasma ratio (B/P); 10 mg·kg−1, i.p. vs oral): not modified | Kp (Brain/plasma ratio (B/P); mouse, brain, intraperitoneal, 10 mg·kg−1, i.p. or oral, DMSO/Tween 80 aqueous solution, at maximal absorption time point): 0.3 to 0.5
